Data from article PMC9181691, “Characterization of the Biomass Degrading Enzyme GuxA from Acidothermus cellulolyticus” (International Journal of Molecular Sciences, 2022).

Target: T1, GuxA GH12 domain (Acidothermus cellulolyticus, UniProt A0LSH8)
T1 construct: gene Acel_0615; GH12 catalytic domain only (between CBM3 and CBM2 of full-length GuxA), codon optimized, C-terminal hexahistidine tag, pET22b(+), E. coli BL21(DE3), 24 kDa
Test: X-ray crystallography, crystal soak
Format: binding
Conditions: 24 h soak with excess cellobiose powder; crystals from 10% PEG 8K, 0.2 M ZnCl2, 0.1 M Na cacodylate pH 6.5; active site groove

T1 sequence (A0LSH8 entry or part of it): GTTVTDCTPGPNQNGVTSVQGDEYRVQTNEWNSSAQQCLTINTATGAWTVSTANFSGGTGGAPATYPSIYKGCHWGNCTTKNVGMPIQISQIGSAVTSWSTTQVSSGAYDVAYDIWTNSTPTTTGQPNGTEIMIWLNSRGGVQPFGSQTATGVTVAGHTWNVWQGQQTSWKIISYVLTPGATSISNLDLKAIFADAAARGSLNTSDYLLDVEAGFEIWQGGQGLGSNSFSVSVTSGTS

OC[C@H]1O[C@@H](O[C@H]2[C@H](O)[C@@H](O)C(O)O[C@@H]2CO)[C@H](O)[C@@H](O)[C@@H]1O (stereo partly shown) [cellobiose]
X-ray crystallography, crystal soak: A cellobiose molecule was found and modeled in the active site groove.
